Each block holds one compound with its values, some of them ahead of it.
Tests used:
[1] = In-vivo radioactivity distribution experiment in normal mice (Reference Example 2); conditions: Reference Example 2 numbering; for Radioactivity concentration in the brain of mice: intravenous
Procedure: Labeled compounds, [^11C]Compounds 23 and 7, were diluted with physiological saline containing 10% ethanol. 100 μL of each of the labeled compounds was intravenously infused to five 5-week-old male ddY mice per group, the animals were decapitated at 2, 10, 30, or 60 min, blood was collected, and then weights and radioactivities thereof were measured.

Aβ(1-42) aggregate [2] = biological target: T1, Aβ(1-42) aggregate (Homo sapiens, UniProt P05067); experiment: In-vitro binding inhibition experiment using Aβ(1-42) aggregate (Example 1); conditions: compound numbers of Example 1
T1 construct: Amyloid β protein (Human, 1-42) [TFA form] was purchased from Peptide Institute, Inc; purchased Peptide Institute, Inc
T1 sequence (P05067 672-713 limits assumed): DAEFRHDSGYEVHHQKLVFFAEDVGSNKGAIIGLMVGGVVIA
Procedure: (§1) Amyloid β protein (Human, 1-42) [TFA form] was purchased from Peptide Institute, Inc., and special grade reagents were used as other reagents. ^1H-NMR was measured using Varian Gemini 300 and tetramethylsilane as an internal standard substance.
The Aβ(1-42) aggregate was dissolved in a buffer containing 10 mM sodium phosphate and 1 mM EDTA (pH 7.4) at a concentration of 0.5 mg/mL, and the mixture was incubated at 37° C. for 36 to 42 h. The binding inhibition experiment was performed using 12×75-mm borosilicate glass tubes. 850 μL of 10% ethanol solution, 50 μL of an Aβ-binding substance ([^125I]4-dimethylamino-4′ iodochalcone) (10% aqueous ethanol), 50 μL (57 nM) of Aβ(1-42) aggregate solution, and 50 μL of 10% aqueous ethanol each containing Compounds 1 and 4 at various concentrations (0.003 to 781 nM) were mixed, and the mixture was allowed to stand at room temperature for 3 h. Further, nonspecific binding was determined using 4-dimethylamino-4′-iodochalcone (400 nM), a nonradioactive compound. Aβ aggregate-bound chalcone derivatives and nonbound chalcone derivatives were separated with a Brandel M-24R cell harvester using a Whatman GF/B filter. The radioactivities of substances remaining on the filter after filtration were measured with a γ counter. […]

Aβ(1-42) aggregate [3] = biological target: T1, Aβ(1-42) aggregate; experiment: In-vitro binding inhibition experiment using Aβ(1-42) aggregate (Reference Example 2); conditions: ligand [^125I]4-dimethylamino-4′-iodochalcone; compound numbers of Reference Example 2; read-out: Inhibition constant (Ki, nM) (mean ± SE)
Procedure: as §1
The Aβ(1-42) aggregate was dissolved in a buffer containing 10 mM sodium phosphate and 1 mM EDTA (pH 7.4) at a concentration of 0.5 mg/mL, and the mixture was incubated at 37° C. for 36 to 42 h. The binding inhibition experiment was performed using 12×75-mm borosilicate glass tubes. 850 μL of 10% ethanol solution, 50 μL of [^125I]4-dimethylamino-4′-iodochalcone (in 10% aqueous ethanol), 50 μL (29 nM) of an Aβ(1-42) aggregate solution, and 50 μL of a solution of fluorine-containing chalcone derivatives in 10% aqueous ethanol prepared at various concentrations were mixed, and the mixture was allowed to stand at room temperature for 3 h. Further, nonspecific binding was calculated using 4-dimethylamino-4′iodochalcone (400 nM), a nonradioactive compound. Aβ aggregate-bound chalcone derivatives and nonbound chalcone derivatives were separated with a Brandel M-24R cell harvester using Whatman GF/B filters. Radioactivities of substances remaining on the filter were measured with a γ counter. The 50% inhibitory concentrations were calculated using Graph Pad Prism (graph pad software), and inhibition constants (Ki values) were calculated by Cheng-Prusoff equation, Ki=IC50/(1+[L]/Kd). In this equation, the concentration of [^125I]4-dimethylamino-4′-iodochalcone used in the experiment was used for [L], and the dissociation constant of [^125I]4-dimethylamino-4′-iodochalcone against the Aβ(1-42) aggregate was used for Kd.

Aβ(1-42) aggregate [4] = biological target: T1, Aβ(1-42) aggregate; experiment: Examination of binding site by binding inhibition experiment using Aβ(1-42) aggregate (Example 2); conditions: in words, FIG. 10
Procedure: Aβ(1-42) was dissolved in 10 mM phosphate buffer containing 1 mM EDTA (pH 7.4) at a concentration of 0.25 mg/mL, and the mixture was incubated at 37° C. for 42 h to prepare an Aβ(1-42) aggregate.
[…] of 10% EtOH solution, […] of [^125I]CL-NMe2 solution, […] of a solution of congo red, thioflavine T, or compound 14 at various concentrations (0 to 20 mM) were mixed, […] of an Aβ(1-42) aggregate solution was finally added, and the mixture was allowed to stand at room temperature for 3 h. Aβ(1-42) aggregate-bound compounds and nonbound compounds were separated with a Brandel M-24R cell harvester using a Whatman GF/B filter. Radioactivities remaining on the filter after filtration were measured with a γ-counter, and inhibition curves were created using Graph Pad Prism 4.0 to calculate inhibition constants.

Structure (SMILES): CN(C)c1ccc(/C=C/C(=O)c2ccc(OCCOCCOCCF)cc2)cc1 [Compound 7 in Reference Example 2, (E)-1-(4-(2-(2-(2-fluoroethoxy)ethoxy)ethoxy)phenyl)-3-(4-(dimethylamino)phenyl)prop-2-en-1-one]
ratio of brain radioactivity at 60 min to that at 2 min after administration [1]: 8.1%
ratio of the radioactivity remaining in the brain at 30 min after administration to that at 2 min after administration [1]: 14.8%
Radioactivity concentration in the brain of mice ([1]; 2 min after administration, listed as [^11C] 7): 4.31 ± 0.33 % ID/g
Radioactivity concentration in the brain of mice ([1]; 2 min after administration, listed as [^11C]Compound 7): 4.31 % ID/g
Radioactivity concentration in the brain of mice ([1]; 10 min after administration): 1.38 ± 0.16 % ID/g
Radioactivity concentration in the brain of mice ([1]; 30 min after administration): 0.64 ± 0.07 % ID/g
Radioactivity concentration in the brain of mice ([1]; 60 min after administration, listed as [^11C] 7): 0.35 ± 0.03 % ID/g
Radioactivity concentration in the brain of mice ([1]; 60 min after administration, listed as [^11C]Compound 7): 0.35 % ID/g

Structure (SMILES): CN(C)c1ccc(/C=C/C(=O)c2ccc(I)s2)cc1 [Compound 1 in Example 1, (E)-3-(4-(dimethylamino)phenyl)-1-(5-iodothiophen-2-yl)prop-2-en-1-one]
binding property to the amyloid aggregate (Aβ(1-42) aggregate [2]; in words): very strong binding property
Ki (Aβ(1-42) aggregate [2]; ligand [^125I]4-dimethylamino-4′-iodochalcone, mean and standard deviation of three experiments, read-out: Inhibition constants (Ki) for binding to Aβ(1-42) aggregate): 5.2 ± 0.7 nM

Structure (SMILES): CNc1ccc(/C=C/C(=O)c2ccc(OCCOCCF)cc2)cc1 [Compound 17 in Reference Example 2, (E)-1-(4-(2-(2-fluoroethoxy)ethoxy)phenyl)-3-(4-(methylamino)phenyl)prop-2-en-1-one]
Ki (Aβ(1-42) aggregate [3]): 187 ± 3 nM

Structure (SMILES): Cc1ccc2c(c1)sc(-c1ccc(N(C)C)cc1)[n+]2C.[Cl-] [thioflavine T]
inhibition of binding of [^125I]CL-NMe2 to the Aβ(1-42) aggregate (Aβ(1-42) aggregate [4]): did not inhibit binding of [^125I]CL-NMe2 to the Aβ(1-42) aggregate to a large extent

Structure (SMILES): Nc1c(/N=N/c2ccc(-c3ccc(/N=N/c4cc(S(=O)(=O)O)c5ccccc5c4N)cc3)cc2)cc(S(=O)(=O)O)c2ccccc12 [congo red]
inhibition of binding of [^125I]CL-NMe2 to the Aβ(1-42) aggregate (Aβ(1-42) aggregate [4]): did not inhibit binding of [^125I]CL-NMe2 to the Aβ(1-42) aggregate to a large extent

The remaining lines, values ahead:

ratio of brain radioactivity at 60 min to that at 2 min after administration [1]: 28.3%
ratio of the radioactivity remaining in the brain at 30 min after administration to that at 2 min after administration [1]: 28.3%
Radioactivity concentration in the brain of mice ([1]; 2 min after administration, listed as [^11C] 23): 3.68 ± 0.35 % ID/g
Radioactivity concentration in the brain of mice ([1]; 2 min after administration, listed as [^11C]Compound 23): 3.68 % ID/g
Radioactivity concentration in the brain of mice ([1]; 10 min after administration): 1.53 ± 0.14 % ID/g
Radioactivity concentration in the brain of mice ([1]; 30 min after administration): 1.04 ± 0.15 % ID/g
Radioactivity concentration in the brain of mice ([1]; 60 min after administration, listed as [^11C] 23): 1.04 ± 0.20 % ID/g
Radioactivity concentration in the brain of mice ([1]; 60 min after administration, listed as [^11C]Compound 23): 1.04 % ID/g
Structure (SMILES): CN(C)c1ccc(/C=C/C(=O)c2ccc(F)cc2)cc1 [Compound 23 in Reference Example 2, (E)-3-(4-(dimethylamino)phenyl)-1-(4-fluorophenyl) prop-en-1-one]

Ki (Aβ(1-42) aggregate [3]): 19 ± 1 nM
Structure (SMILES): CN(C)c1ccc(/C=C/C(=O)c2ccc(OCCOCCF)cc2)cc1 [Compound 5 in Reference Example 2, (E)-1-(4-(2-(2-fluoroethoxy)ethoxy)phenyl)-3-(4-(dimethylamino)phenyl)prop-2-en-1-one]

Ki (Aβ(1-42) aggregate [3]): 1000 ± 29 nM
Structure (SMILES): Nc1ccc(/C=C/C(=O)c2ccc(OCCOCCF)cc2)cc1 [Compound 16 in Reference Example 2, (E)-1-(4-(2-(2-fluoroethoxy)ethoxy)phenyl)-3-(4-aminophenyl)prop-2-en-1-one]

Ki (Aβ(1-42) aggregate [3]): 29 ± 2 nM
Structure (SMILES): CN(C)c1ccc(/C=C/C(=O)c2ccc(OCCF)cc2)cc1 [Compound 3 in Reference Example 2, (E)-1-(4-(2-fluoroethoxy)phenyl)-3-(4-(dimethylamino)phenyl)prop-2-en-1-one]

Ki (Aβ(1-42) aggregate [3]): 553 ± 22 nM
Structure (SMILES): Nc1ccc(/C=C/C(=O)c2ccc(OCCF)cc2)cc1 [Compound 11 in Reference Example 2, (E)-1-(4-(2-fluoroethoxy)phenyl)-3-(4-aminophenyl)prop-2-en-1-one]

— patent publication US20100278733A1, “COMPOSITION FOR DIAGNOSIS OF AMYLOID-RELATED DISEASE” (priority 2007, published 2010)
